This note sets out measurements from ChEMBL document CHEMBL1201862, “PubChem BioAssay data set” (2004).

Among the test systems are CAKI-1; DLD-1; DMS-114; HOP-18; M19-MEL; OVCAR-3; SF-268; SK-OV-3; SNB-78; U-251; UACC-62; XF498; 786-0; M14; TK-10; DU-145; MDA-MB-231; MDA-MB-435; MDA-N; PC-3.
Holding throughout (test): NCI tumour cell line growth inhibition, 48 h

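A five-concentration, 48-hour dose response in 96-well plates underlies each endpoint, interpolated linearly between surrounding concentrations. Here, GI50 denotes the concentration required for 50% inhibition of growth.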 Activity calls are given as the source filed them. Rule as the data show it: active = GI50 up to about 1.1 µM and inactive = higher.

For `O=C(O)c1cn2c3c(cc(N4CCN(CCO)CC4)cc3c1=O)SCC2`, the GI50 in the assay with CAKI-1 was > 100 µM (inactive); in the assay on DLD-1, > 100 µM (inactive); in the assay with DMS-114, 51.3 µM (inactive); in the assay on HOP-18 it was > 79.3 µM (inactive); in the assay on M19-MEL it was > 80.7 µM (inactive); in the assay on OVCAR-3 it was 58.6 µM (inactive). The GI50 with SF-268 was 47.3 µM (inactive); with SK-OV-3, > 100 µM (inactive); in the assay on SNB-78 it was > 79.8 µM (inactive); in the assay on U-251 it was > 95.9 µM (inactive); with UACC-62, > 78.2 µM (inactive); with XF498, 23.2 µM (inactive).
Regarding `CC[C@@]1(O)C[C@H](OC2CC(N(C)C)C(O)C(C)O2)c2c(cc3c(c2O)C(=O)c2c(O)ccc(O)c2C3=O)[C@H]1C(=O)OC` (stereo partly drawn), the GI50 was 0.027 µM (active) in the assay on CAKI-1; 0.0514 µM (active) in the assay on DLD-1; 0.119 µM (active) with DMS-114; 0.212 µM (active) with HOP-18; 0.0461 µM (active) in the assay with M19-MEL; 0.149 µM (active) in the assay on OVCAR-3. Besides, the GI50 with SF-268 was 0.0536 µM (active); in the assay with SK-OV-3, 0.236 µM (active); with SNB-78, 0.153 µM (active); in the assay on U-251, 0.0405 µM (active); in the assay on UACC-62, 0.0451 µM (active); with XF498, 0.106 µM (active).
Consider `CCOC(=O)[C@H]1Nc2ccc(Cl)cc2[C@H]2c3ccccc3O[C@H]21`, for which the GI50 in the assay with 786-0 is > 100 µM (inactive); in the assay on CAKI-1, > 100 µM (inactive); in the assay on DLD-1, 63 µM (inactive); in the assay on DMS-114, > 100 µM (inactive); with HOP-18, > 100 µM (inactive); in the assay on M14 it was 41.2 µM (inactive). The GI50 was > 100 µM (inactive) with M19-MEL; 80.4 µM (inactive) in the assay on OVCAR-3; > 100 µM (inactive) with SF-268; > 100 µM (inactive) in the assay with SNB-78; 39.8 µM (inactive) with TK-10; > 100 µM (inactive) with U-251. Besides, the results for the GI50 with UACC-62 and with XF498 were 41.8 µM (inactive) and > 100 µM (inactive), respectively.
On to `CCCCCCCCCCCCCCCCNCC(O)CN` (stereo not drawn), for which the GI50 in the assay with CAKI-1 is 12.2 µM (inactive); in the assay on DLD-1 it was 1.87 µM (inactive); with DMS-114 it was 5.69 µM (inactive); in the assay on HOP-18, 5.46 µM (inactive); in the assay with M19-MEL, 2.4 µM (inactive); in the assay on OVCAR-3, 2.52 µM (inactive). Moreover, the GI50 is 3.32 µM (inactive) in the assay with SF-268; 18.4 µM (inactive) with SK-OV-3; 2.48 µM (inactive) in the assay on SNB-78; 2.51 µM (inactive) in the assay with U-251; 4.7 µM (inactive) in the assay on UACC-62; 7.29 µM (inactive) in the assay with XF498.
Take `O=C(O)C1=C(CO)Oc2cc3c(cc2C1c1ccc2c(c1)OCO2)OCO3` (stereo not drawn): the GI50 in the assay with CAKI-1, in the assay on DLD-1, in the assay with DMS-114, with HOP-18, with M14 and with M19-MEL was > 100 µM (inactive) each time. The GI50 in the assay with OVCAR-3, with SK-OV-3, in the assay on SNB-78, in the assay on TK-10, with U-251 and in the assay with UACC-62 was > 100 µM (inactive) each time. In addition, in the assay on XF498, the GI50 was > 100 µM (inactive).
In the case of `COC(=O)C1C(O)C(C)C(O)OC1C(C)C(O)C(C)/C=C\C=C(/C)C(=O)Nc1c(C)c(OC(C)=O)c2c(c1O)C(=O)C(C)=C1OCOC(/C(C)=C/C(C)=O)=C12` (stereo not drawn), the GI50 in the assay with CAKI-1 is 17.6 µM (inactive); in the assay with DLD-1, 8.93 µM (inactive); in the assay with DMS-114, 10.1 µM (inactive); in the assay with HOP-18, 15.2 µM (inactive); in the assay on M19-MEL, 13.3 µM (inactive); in the assay with OVCAR-3, 9.38 µM (inactive). In addition, the GI50 in the assay with SF-268 is 3.08 µM (inactive); in the assay with SK-OV-3, 20 µM (inactive); in the assay with SNB-78, 13.2 µM (inactive); with U-251, 14.4 µM (inactive); with UACC-62 it was 14.3 µM (inactive); in the assay on XF498, 13.8 µM (inactive).
With `COc1cc(O)c2c(c1)C(=O)c1cc3c(c(O)c1C2=O)C(OC1OC(C)C(O)C(O)C1OC)C(OC)C(C)(O)C3=O` (stereo not drawn), the GI50 is 2.22 µM (inactive) in the assay on DLD-1; 1.61 µM (inactive) in the assay with DMS-114; 5.16 µM (inactive) in the assay with HOP-18; 0.532 µM (active) in the assay with M19-MEL; 0.439 µM (active) with OVCAR-3; 2.12 µM (inactive) with SF-268. The GI50 is 3.2 µM (inactive) in the assay on SK-OV-3; 3.76 µM (inactive) in the assay with SNB-78; 3.39 µM (inactive) in the assay with U-251; 1.38 µM (inactive) in the assay with UACC-62; 3.95 µM (inactive) in the assay with XF498.
Consider `O=Cc1c(Cn2ccnc2)c2cc([N+](=O)[O-])ccc2n1Cc1ccccc1`, for which the GI50 is > 68.4 µM (inactive) with CAKI-1; > 100 µM (inactive) in the assay on DLD-1; > 100 µM (inactive) in the assay with DMS-114; > 25.8 µM (inactive) in the assay on HOP-18; > 69.2 µM (inactive) with M19-MEL; > 100 µM (inactive) in the assay with OVCAR-3. Besides, the GI50 in the assay on SF-268 was > 92.7 µM (inactive); in the assay with SK-OV-3 it was > 100 µM (inactive); in the assay on SNB-78, > 72.4 µM (inactive); in the assay with U-251, 37.3 µM (inactive); with UACC-62 it was > 100 µM (inactive); in the assay on XF498, > 100 µM (inactive).
Take `CC[C@@]1(O)C(=O)OCc2c1cc1n(c2=O)Cc2cc3c(N)cccc3nc2-1` [9-AMINOCAMPTOTHECIN]: the GI50 was < 0.01 µM (active) with 786-0; < 0.01 µM (active) in the assay on CAKI-1; 0.566 µM (active) with DLD-1; < 0.01 µM (active) in the assay with DMS-114; < 0.01 µM (active) in the assay with DU-145; 0.0277 µM (active) in the assay on HOP-18. Further, the GI50 with M14 was 0.0113 µM (active); in the assay with M19-MEL, 0.0198 µM (active); in the assay on MDA-MB-231, 0.272 µM (active); in the assay with MDA-MB-435 it was 0.118 µM (active); in the assay with MDA-N, 0.229 µM (active); in the assay on OVCAR-3 it was 0.207 µM (active). Further, the GI50 in the assay on PC-3 was 0.0728 µM (active); in the assay on SF-268 it was < 0.01 µM (active); in the assay with SK-OV-3 it was 0.0157 µM (active); in the assay on SNB-78 it was 0.574 µM (active); with TK-10, 1.63 µM (inactive); in the assay on U-251, 0.0108 µM (active). The figures for the GI50 with UACC-62 and in the assay with XF498 were < 0.0102 µM (active) and 0.143 µM (active), respectively.
